# Assay results from ChEMBL document CHEMBL1201862, “PubChem BioAssay data set” (2004).
#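 48-hour exposure; five concentrations; linearly interpolated endpoints. Abbreviation: GI50, concentration required for 50% inhibition of growth.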 Activity calls are given as the source filed them. Cut-off read from the data, not from the text of the source: active = GI50 up to about 1.1 µM and inactive = higher.
# Assays:
# Test in all cases: NCI anticancer screen, dose series, 48 h
# [1] = tested on: DMS-114
# [2] = tested on: KM12
# [3] = tested on: UO-31
# [4] = tested on: SK-MEL-2
# [5] = tested on: HCT-116
# [6] = tested on: OVCAR-3
# [7] = tested on: HT-29
# [8] = tested on: SNB-19
# [9] = tested on: U-251
# [10] = tested on: DMS-273
# [11] = tested on: XF498
# [12] = tested on: COLO 205
# [13] = tested on: HOP-62
# [14] = tested on: HCT-15
# [15] = tested on: SF-295
# [16] = tested on: TK-10
# [17] = tested on: A549
# [18] = tested on: DLD-1
# [19] = tested on: EKVX
# [20] = tested on: SF-539
# [21] = tested on: IGROV-1
# [22] = tested on: MOLT-4
# [23] = tested on: RXF 393
# [24] = tested on: A498
# [25] = tested on: NCI-H522
# [26] = tested on: NCI-H23
# [27] = tested on: HOP-18
# [28] = tested on: SN12C
# [29] = tested on: KM-20L2
# [30] = tested on: UACC-62
# [31] = tested on: HOP-92
# [32] = tested on: Malme-3M
# [33] = tested on: NCI-H226
# [34] = tested on: M19-MEL
# [35] = tested on: SF-268
# [36] = tested on: HCC 2998
# [37] = tested on: OVCAR-4
# [38] = tested on: SK-MEL-28
# [39] = tested on: LOX IMVI
# [40] = tested on: HL-60
# [41] = tested on: UACC-257
# [42] = tested on: LXFL 529
# [43] = tested on: OVCAR-8
# [44] = tested on: SK-OV-3
# [45] = tested on: CCRF-CEM
# [46] = tested on: SW-620
# [47] = tested on: RPMI-8226
# [48] = tested on: SR
# [49] = tested on: 786-0
# [50] = tested on: M14
# [51] = tested on: ACHN
# [52] = tested on: NCI-H460
# [53] = tested on: K562
# [54] = tested on: SNB-75
# [55] = tested on: OVCAR-5
# [56] = tested on: SK-MEL-5
# [57] = tested on: SNB-78
# [58] = tested on: NCI/ADR-RES
# [59] = tested on: MCF7
# [60] = tested on: CAKI-1
compound,measurement,setting,value
CC(=O)c1cccc(NCn2nnc3ccccc32)c1,GI50,[1],> 100 µM (inactive)
same,GI50,[2],> 100 µM (inactive)
same,GI50,[3],> 100 µM (inactive)
same,GI50,[4],> 100 µM (inactive)
same,GI50,[5],> 100 µM (inactive)
same,GI50,[6],> 100 µM (inactive)
same,GI50,[7],> 100 µM (inactive)
same,GI50,[8],> 100 µM (inactive)
same,GI50,[9],> 100 µM (inactive)
same,GI50,[10],> 100 µM (inactive)
same,GI50,[11],> 100 µM (inactive)
same,GI50,[12],> 100 µM (inactive)
same,GI50,[13],> 100 µM (inactive)
same,GI50,[14],> 100 µM
same,GI50,[15],> 100 µM (inactive)
same,GI50,[16],> 100 µM (inactive)
same,GI50,[17],> 100 µM (inactive)
same,GI50,[18],> 100 µM (inactive)
same,GI50,[19],> 100 µM (inactive)
same,GI50,[20],> 100 µM (inactive)
same,GI50,[21],> 100 µM (inactive)
same,GI50,[22],> 100 µM (inactive)
same,GI50,[23],> 100 µM (inactive)
same,GI50,[24],> 100 µM (inactive)
same,GI50,[25],> 100 µM (inactive)
same,GI50,[26],> 100 µM (inactive)
same,GI50,[27],> 100 µM (inactive)
same,GI50,[28],> 100 µM (inactive)
same,GI50,[29],> 100 µM (inactive)
same,GI50,[30],> 100 µM (inactive)
same,GI50,[31],> 100 µM (inactive)
same,GI50,[32],> 100 µM (inactive)
same,GI50,[33],> 100 µM (inactive)
same,GI50,[34],> 100 µM (inactive)
same,GI50,[35],> 100 µM (inactive)
same,GI50,[36],> 100 µM (inactive)
same,GI50,[37],> 100 µM (inactive)
same,GI50,[38],> 100 µM (inactive)
same,GI50,[39],> 100 µM (inactive)
same,GI50,[40],61 µM (inactive)
same,GI50,[41],> 100 µM (inactive)
same,GI50,[42],> 100 µM (inactive)
same,GI50,[43],> 100 µM (inactive)
same,GI50,[44],> 100 µM (inactive)
same,GI50,[45],> 100 µM (inactive)
same,GI50,[46],> 100 µM (inactive)
same,GI50,[47],96.8 µM (inactive)
same,GI50,[48],79.4 µM (inactive)
same,GI50,[49],> 100 µM (inactive)
same,GI50,[50],> 100 µM (inactive)
same,GI50,[51],> 100 µM (inactive)
same,GI50,[52],> 100 µM (inactive)
same,GI50,[53],> 100 µM (inactive)
same,GI50,[54],> 100 µM (inactive)
C#CC[C@@]12CC(=O)C[C@@H]1CCC1(C2)OCCO1.C#CC[C@]12CC(=O)CC[C@H]1CC(=O)C2,GI50,[55],> 100 µM (inactive)
same,GI50,[2],> 100 µM (inactive)
same,GI50,[3],> 100 µM (inactive)
same,GI50,[56],> 100 µM (inactive)
same,GI50,[4],> 100 µM (inactive)
same,GI50,[57],> 100 µM (inactive)
same,GI50,[5],> 100 µM (inactive)
same,GI50,[58],> 100 µM (inactive)
same,GI50,[6],> 100 µM (inactive)
same,GI50,[7],> 100 µM (inactive)
same,GI50,[8],> 100 µM (inactive)
same,GI50,[9],> 100 µM (inactive)
same,GI50,[10],> 100 µM (inactive)
same,GI50,[11],> 100 µM (inactive)
same,GI50,[12],> 100 µM (inactive)
same,GI50,[13],> 100 µM (inactive)
same,GI50,[14],> 100 µM
same,GI50,[15],> 100 µM (inactive)
same,GI50,[17],> 100 µM (inactive)
same,GI50,[18],> 100 µM (inactive)
same,GI50,[19],> 100 µM (inactive)
same,GI50,[20],> 100 µM (inactive)
same,GI50,[21],> 100 µM (inactive)
same,GI50,[22],34.4 µM (inactive)
same,GI50,[23],> 100 µM (inactive)
same,GI50,[24],> 100 µM (inactive)
same,GI50,[25],> 100 µM (inactive)
same,GI50,[26],> 100 µM (inactive)
same,GI50,[27],90.6 µM (inactive)
same,GI50,[28],> 100 µM (inactive)
same,GI50,[29],> 100 µM (inactive)
same,GI50,[30],95.5 µM (inactive)
same,GI50,[31],> 100 µM (inactive)
same,GI50,[32],> 100 µM (inactive)
same,GI50,[33],> 100 µM (inactive)
same,GI50,[59],> 100 µM (inactive)
same,GI50,[34],> 100 µM (inactive)
same,GI50,[35],> 100 µM (inactive)
same,GI50,[36],> 100 µM (inactive)
same,GI50,[37],> 100 µM (inactive)
same,GI50,[38],> 100 µM (inactive)
same,GI50,[39],> 100 µM (inactive)
same,GI50,[40],29.1 µM (inactive)
same,GI50,[41],90.8 µM (inactive)
same,GI50,[43],> 100 µM (inactive)
same,GI50,[44],> 100 µM (inactive)
same,GI50,[45],60.1 µM (inactive)
same,GI50,[46],> 100 µM (inactive)
same,GI50,[47],> 100 µM (inactive)
same,GI50,[52],> 100 µM (inactive)
same,GI50,[53],59.7 µM (inactive)
same,GI50,[54],97.7 µM (inactive)
N#Cc1cccc2c1Nc1ccccc1S2,GI50,[1],81.1 µM (inactive)
same,GI50,[55],> 100 µM (inactive)
same,GI50,[2],> 100 µM (inactive)
same,GI50,[3],> 100 µM (inactive)
same,GI50,[56],> 100 µM (inactive)
same,GI50,[4],87.1 µM (inactive)
same,GI50,[57],67.9 µM (inactive)
same,GI50,[5],> 100 µM (inactive)
same,GI50,[6],> 100 µM (inactive)
same,GI50,[7],> 100 µM (inactive)
same,GI50,[8],37.8 µM (inactive)
same,GI50,[9],92.7 µM (inactive)
same,GI50,[10],> 100 µM (inactive)
same,GI50,[11],41.8 µM (inactive)
same,GI50,[12],> 100 µM (inactive)
same,GI50,[13],43.4 µM (inactive)
same,GI50,[14],> 100 µM
same,GI50,[15],35.2 µM (inactive)
same,GI50,[16],> 100 µM (inactive)
same,GI50,[17],> 100 µM (inactive)
same,GI50,[18],> 100 µM (inactive)
same,GI50,[19],> 100 µM (inactive)
same,GI50,[20],46.7 µM (inactive)
same,GI50,[21],48.9 µM (inactive)
same,GI50,[22],> 100 µM (inactive)
same,GI50,[23],32.2 µM (inactive)
same,GI50,[24],> 100 µM (inactive)
same,GI50,[25],> 100 µM (inactive)
same,GI50,[26],> 100 µM (inactive)
same,GI50,[27],37.3 µM (inactive)
same,GI50,[28],> 100 µM (inactive)
same,GI50,[29],> 100 µM (inactive)
same,GI50,[30],60.7 µM (inactive)
same,GI50,[31],20.2 µM (inactive)
same,GI50,[32],> 100 µM (inactive)
same,GI50,[33],19.1 µM (inactive)
same,GI50,[60],> 100 µM (inactive)
same,GI50,[34],> 100 µM (inactive)
same,GI50,[35],32.9 µM (inactive)
same,GI50,[36],> 100 µM (inactive)
same,GI50,[37],> 100 µM (inactive)
same,GI50,[38],> 100 µM (inactive)
same,GI50,[39],> 100 µM (inactive)
same,GI50,[40],> 100 µM (inactive)
same,GI50,[41],> 100 µM (inactive)
same,GI50,[43],79.3 µM (inactive)
same,GI50,[44],> 100 µM (inactive)
same,GI50,[45],> 100 µM (inactive)
same,GI50,[46],> 100 µM (inactive)
same,GI50,[47],> 100 µM (inactive)
same,GI50,[48],> 100 µM (inactive)
same,GI50,[49],55.1 µM (inactive)
same,GI50,[50],> 100 µM (inactive)
same,GI50,[51],> 100 µM (inactive)
same,GI50,[52],> 100 µM (inactive)
same,GI50,[53],> 100 µM (inactive)
same,GI50,[54],19.7 µM (inactive)
